According to ChEMBL document CHEMBL4765294, “Discovery and evaluation of new compounds targeting ribosomal protein S1 in antibiotic-resistant Mycobacterium Tuberculosis” (Eur J Med Chem, 2020):
The source made the active and inactive calls. No cut-off for these calls is given here.

Legend:
[1] = tested on: Mycobacterium tuberculosis; assay: Binding affinity to Mycobacterium tuberculosis RpsA C-terminal domain (285 to 476 residues) at 500 uM by STD based analysis
[2] = Binding affinity to Mycobacterium tuberculosis RpsA C-terminal domain (285 to 476 residues) assessed as dissociation constant by fluorescence quenching titration based analysis
[3] = tested on: Mycobacterium tuberculosis; assay: Binding affinity to Mycobacterium tuberculosis RpsA C-terminal domain (285 to 476 residues) assessed as quenching rate constant by fluorescence quenching titration based analysis
[4] = tested on: Mycobacterium tuberculosis; assay: Binding affinity to Mycobacterium tuberculosis 15N-labelled wild type RpsA (280 to 438 residues) by chemical shift perturbation based 15N-1H HSQC spectral analysis

SMILES	Activity [1]	Kd [2] [µM]	Kq [3]	Activity [4]
Cc1cccc(CNC(=O)CSc2nc3nc[nH]c3c(=O)[nH]2)c1	Active	2.67	3.75 10^12/M/s	Active
Cc1ccc(CNC(=O)CSc2nc3nc[nH]c3c(=O)[nH]2)cc1	Active	7.61	4.09 10^12/M/s	Active
CCOC(=O)CSc1nc2nc[nH]c2c(=O)[nH]1	Active	0.81	3.37 10^12/M/s	Active
CC(Sc1nc(N)cc(N)n1)C(=O)O (configuration not stated)		2.67		
O=C(O)c1cnccn1 [PYRAZINOIC ACID]		9.65	8.22 10^11/M/s	
Cc1ccc(CNC(=O)COc2cc(O)c3c(=O)cc(-c4ccccc4)oc3c2)cc1	Active	3.24	6.45 10^12/M/s	Active
O=C(O)CSc1nc2nc[nH]c2c(=O)[nH]1	Active	6.35	1.79 10^12/M/s	Active
Cc1cccc(CNC(=O)COc2cc(O)c3c(=O)cc(-c4ccccc4)oc3c2)c1	Active	5.66	1.94 10^12/M/s	Active
